Laboratory results taken from US9580449B2, “Compositions and methods for the production of pyrimidine and pyridine compounds with BTK inhibitory activity” (Merck Patent GmbH, priority 2011, dated 2017).

Tests used:
full-length human BTK = full-length human BTK (Homo sapiens (Human), UniProt Q06187); experiment: BTK IC50 enzyme assay (microfluidic off-chip mobility shift kinase assay); type: biochemical; settings: incubated for 90 min. at 27 C; read-out: Time Dependent BTK Enzyme Assay IC50
How it was run: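 Off-chip microfluidic mobility shift assay on full-length human BTK; substrate-to-product conversion measured by charge/mass separation of phosphorylated peptide after reaction stop.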

PBMC = experiment: Time Dependent PBMC IC50 assay; type: cell-based
Experimental: Compounds described by embodiments of the present invention were assayed using a time dependent PMBC assay.

Sequence of full-length human BTK (Q06187 whole entry): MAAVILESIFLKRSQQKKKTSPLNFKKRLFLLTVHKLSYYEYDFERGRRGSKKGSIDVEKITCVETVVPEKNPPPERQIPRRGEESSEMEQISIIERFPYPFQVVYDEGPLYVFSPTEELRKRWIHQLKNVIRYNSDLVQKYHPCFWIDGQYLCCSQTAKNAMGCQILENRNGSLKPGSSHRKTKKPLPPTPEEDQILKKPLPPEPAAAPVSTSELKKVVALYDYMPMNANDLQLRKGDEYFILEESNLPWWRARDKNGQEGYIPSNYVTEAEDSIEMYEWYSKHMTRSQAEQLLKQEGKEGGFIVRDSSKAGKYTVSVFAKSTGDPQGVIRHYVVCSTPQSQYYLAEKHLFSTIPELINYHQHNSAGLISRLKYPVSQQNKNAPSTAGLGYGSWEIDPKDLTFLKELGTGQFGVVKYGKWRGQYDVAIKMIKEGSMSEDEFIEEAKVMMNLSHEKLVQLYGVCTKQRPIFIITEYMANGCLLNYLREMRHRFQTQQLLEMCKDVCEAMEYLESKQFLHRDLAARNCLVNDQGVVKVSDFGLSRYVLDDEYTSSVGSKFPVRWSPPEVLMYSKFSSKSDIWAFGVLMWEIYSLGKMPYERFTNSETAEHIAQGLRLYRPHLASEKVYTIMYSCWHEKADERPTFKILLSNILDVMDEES

Row | Structure (SMILES) | IC50 (full-length human BTK) | IC50 (PBMC)
1 | C#CC(=O)N[C@@H]1CCC[C@H](Nc2ncnc(N)c2-c2ccc(Oc3ccccc3)cc2)C1 (relative stereo) [A64, N-(cis-3-((6-amino-5-(4-phenoxyphenyl)pyrimidin-4-yl)amino)cyclohexyl)propiolamide] | < 0.1 µM | < 1 µM
2 | C=CC(=O)N1C[C@H](Nc2ncnc(N)c2-c2ccc(Oc3ccccc3)cc2)[C@@H](O)C1 (relative stereo) [A75, 1-(trans-3-((6-amino-5-(4-phenoxyphenyl)pyrimidin-4-yl)amino)-4-hydroxypyrrolidin-1-yl)prop-2-en-1-one] | < 0.1 µM | < 1 µM
3 | C=CC(=O)N1CC[C@@H](Nc2ncnc(N)c2-c2ccc(Oc3ccccc3)cc2)C1 [A1, (R)-1-(3-((6-amino-5-(4-phenoxyphenyl)pyrimidin-4-yl)amino)pyrrolidin-1-yl)prop-2-en-1-one] | – | < 1 µM
4 | C=CC(=O)N1CC[C@H](CNc2ncnc(N)c2-c2ccc(Oc3ccccc3)cc2)C1 [A4, (R)-1-(3-(((6-amino-5-(4-phenoxyphenyl)pyrimidin-4-yl)amino)methyl)pyrrolidin-1-yl)prop-2-en-1-one] | – | < 1 µM
5 | C=CC(=O)N1CCC(COc2ncncc2-c2ccc(Oc3ccccc3)cc2)CC1 [A6, 1-(4-(((5-(4-phenoxyphenyl)pyrimidin-4-yl)oxy)methyl)piperidin-1-yl)prop-2-en-1-one] | < 0.1 µM | < 1 µM
6 | C=CS(=O)(=O)N1CCC(CNc2ncnc(N)c2-c2ccc(Oc3ccccc3)cc2)CC1 [A10, 5-(4-phenoxyphenyl)-N4-((1-(vinylsulfonyl)piperidin-4-yl)methyl)pyrimidine-4,6-diamine] | – | < 1 µM
7 | C=CC(=O)N1CC[C@H](COc2ncnc(N)c2-c2ccc(Oc3ccccc3)cc2)C1 [A26, (S)-1-(3-(((6-amino-5-(4-phenoxyphenyl)pyrimidin-4-yl)oxy)methyl)pyrrolidin-1-yl)prop-2-en-1-one] | – | < 1 µM
8 | C=CC(=O)N1CCC(CNc2ncnc(N)c2-c2ccc(Oc3cccc(F)c3)cc2)CC1 [A34, 1-(4-(((6-amino-5-(4-(3-fluorophenoxy)phenyl)pyrimidin-4-yl)amino)methyl)piperidin-1-yl)prop-2-en-1-one] | – | < 1 µM
9 | C=CC(=O)N1CC[C@@H](COc2ncnc(N)c2-c2ccc(Oc3ccccc3)cc2)C1 [A38, (R)-1-(3-(((6-amino-5-(4-phenoxyphenyl)pyrimidin-4-yl)oxy)methyl)pyrrolidin-1-yl)prop-2-en-1-one] | – | < 1 µM
10 | Nc1ncnc(NCC2CCN(C(=O)CCl)CC2)c1-c1ccc(Oc2ccccc2)cc1 [A45, 1-(4-(((6-amino-5-(4-phenoxyphenyl)pyrimidin-4-yl)amino)methyl)piperidin-1-yl)-2-chloroethanone] | – | < 1 µM
11 | C=CC(=O)N1CCCCC(Nc2ncnc(N)c2-c2ccc(Oc3ccccc3)cc2)C1 (stereo not drawn) [A52, 1-(3-((6-amino-5-(4-phenoxyphenyl)pyrimidin-4-yl)amino)azepan-1-yl)prop-2-en-1-one] | < 0.1 µM | < 1 µM
12 | C=CC(=O)Nc1cccc(Oc2ncnc(N)c2-c2cnn(Cc3cccc(F)c3)c2)c1 [A67, N-(3-((6-amino-5-(1-(3-fluorobenzyl)-1H-pyrazol-4-yl)pyrimidin-4-yl)oxy)phenyl)acrylamide] | < 0.1 µM | < 1 µM
13 | C=CC(=O)Nc1cccc(Nc2ncnc(N)c2-c2cnn(Cc3ccccc3)c2)c1 [A70, N-(3-((6-amino-5-(1-benzyl-1H-pyrazol-4-yl)pyrimidin-4-yl)amino)phenyl)acrylamide] | < 0.1 µM | < 1 µM
14 | CN(C)C/C=C/C(=O)N1CC2(CC(Oc3ncnc(N)c3-c3ccc(Oc4ccccc4)cc3)C2)C1 [A105, (E)-1-(6-((6-amino-5-(4-phenoxyphenyl)pyrimidin-4-yl)oxy)-2-azaspiro[3.3]heptan-2-yl)-4-(dimethylamino)but-2-en-1-one] | < 0.1 µM | < 1 µM
15 | C=CC(=O)N1CC2(CC(Oc3ncnc(N)c3-c3cnn(Cc4ccccc4)c3)C2)C1 [A106, 1-(6-((6-amino-5-(1-benzyl-1H-pyrazol-4-yl)pyrimidin-4-yl)oxy)-2-azaspiro[3.3]heptan-2-yl)prop-2-en-1-one] | < 0.1 µM | > 1 µM
16 | C=CC(=O)N1CCC2(CC(Nc3ncnc(N)c3-c3ccc(Oc4ccccc4)cc3)C2)C1 (stereo not drawn) [A113, 1-(2-((6-amino-5-(4-phenoxyphenyl)pyrimidin-4-yl)amino)-6-azaspiro[3.4]octan-6-yl)prop-2-en-1-one] | < 0.1 µM | < 1 µM
17 | C=CC(=O)N1CC2(CC(Oc3ncnc(N)c3-c3ccc(Oc4ccncc4)cc3)C2)C1 [A114, 1-(6-((6-amino-5-(4-(pyridin-4-yloxy)phenyl)pyrimidin-4-yl)oxy)-2-azaspiro[3.3]heptan-2-yl)prop-2-en-1-one] | < 0.1 µM | > 1 µM
18 | C#CC(=O)N1CCC2(CC(Nc3ncnc(N)c3-c3ccc(Oc4ccccc4)cc3)C2)C1 (stereo not drawn) [A115, 1-(2-((6-amino-5-(4-phenoxyphenyl)pyrimidin-4-yl)amino)-6-azaspiro[3.4]octan-6-yl)prop-2-yn-1-one] | < 0.1 µM | > 1 µM
19 | C=CC(=O)N[C@H]1C[C@H](Nc2ncnc(N)c2-c2ccc(Oc3ccccc3)cc2)C1 [A117, N-(1,3-trans-3-((6-amino-5-(4-phenoxyphenyl)pyrimidin-4-yl)amino)cyclobutyl)acrylamide] | < 0.1 µM | < 1 µM

Row | Structure (SMILES) | IC50 (full-length human BTK) | IC50 (PBMC)
20 | C=CC(=O)N[C@H]1C[C@@H](Nc2ncnc(N)c2-c2ccc(Oc3ccccc3)cc2)C1 [A118] | < 0.1 µM | < 1 µM
21 | C=CC(=O)N1CCC(CNc2ncnc(N)c2-c2ccc(Oc3ccccc3)cc2)(OC)CC1 [A121, 1-(4-(((6-amino-5-(4-phenoxyphenyl)pyrimidin-4-yl)amino)methyl)-4-methoxypiperidin-1-yl)prop-2-en-1-one] | < 0.1 µM | < 1 µM
22 | C=CC(=O)N1CC2(CC(Nc3ncnc(N)c3-c3ccc(Oc4ccccc4)cc3)C2)C1 [A124, 1-(6-((6-amino-5-(4-phenoxyphenyl)pyrimidin-4-yl)amino)-2-azaspiro[3.3]heptan-2-yl)prop-2-en-1-one] | – | < 1 µM
23 | CN(C)C/C=C/C(=O)N1CC[C@@H](CNc2ncnc(N)c2-c2ccc(Oc3ccccc3)cc2)[C@H](O)C1 [A126, (E)-1-((3S,4S)-4-(((6-amino-5-(4-phenoxyphenyl)pyrimidin-4-yl)amino)methyl)-3-hydroxypiperidin-1-yl)-4-(dimethylamino)but-2-en-1-one] | < 0.1 µM | < 1 µM
24 | CN(C)C/C=C/C(=O)N1CC2(CC(Nc3ncnc(N)c3-c3ccc(Oc4ccccc4)cc3)C2)C1 [A127, (E)-1-(6-((6-amino-5-(4-phenoxyphenyl)pyrimidin-4-yl)amino)-2-azaspiro[3.3]heptan-2-yl)-4-(dimethylamino)but-2-en-1-one] | < 0.1 µM | < 1 µM
25 | CN(C)C/C=C/C(=O)Nc1cccc(Oc2ccnc(N)c2-c2ccc(Oc3ccccc3)cc2)c1 [A151, (E)-N-(3-((2-amino-3-(4-phenoxyphenyl)pyridin-4-yl)oxy)phenyl)-4-(dimethylamino)but-2-enamide] | < 0.1 µM | > 1 µM
26 | C=CC(=O)N1CCC(CNc2ncnc(N)c2-c2ccc(Oc3ccccc3)nc2)CC1 [A168, 1-(4-(((6-amino-5-(6-phenoxypyridin-3-yl)pyrimidin-4-yl)amino)methyl)piperidin-1-yl)prop-2-en-1-one] | > 1 µM | > 1 µM
27 | C=CC(=O)Nc1cccc(Oc2ncnc(N)c2-c2ccc(Oc3ccccc3)cc2)c1 [A242, N-(3-((6-amino-5-(4-phenoxyphenyl)pyrimidin-4-yl)oxy)phenyl)acrylamide] | < 0.1 µM | < 1 µM
28 | C=CC(=O)Nc1cccc(-c2c(N)ncnc2Oc2ccc(Oc3ccccc3)cc2)c1 [A245, N-(3-(4-amino-6-(4-phenoxyphenoxy)pyrimidin-5-yl)phenyl)acrylamide] | < 0.1 µM | < 1 µM
29 | C=CC(=O)N1CCC[C@@H](Nc2ncnc(N)c2-c2ccc(Oc3ccccc3)cc2)C1 [A247, (R)-1-(3-((6-amino-5-(4-phenoxyphenyl)pyrimidin-4-yl)amino)piperidin-1-yl)prop-2-en-1-one] | – | < 1 µM
30 | C=CC(=O)N1CCC(CNc2ncnc(N)c2-c2ccc(Oc3ccccc3)cc2)CC1 [A250, 1-(4-(((6-amino-5-(4-phenoxyphenyl)pyrimidin-4-yl)amino)methyl)piperidin-1-yl)prop-2-en-1-one] | – | < 1 µM
31 | CN(C)C/C=C/C(=O)Nc1cccc(Oc2ncnc(N)c2-c2ccc(Oc3ccccc3)cc2)c1 [A252, (E)-N-(3-((6-amino-5-(4-phenoxyphenyl)pyrimidin-4-yl)oxy)phenyl)-4-(dimethylamino)but-2-enamide] | < 0.1 µM | < 1 µM
32 | C=CC(=O)N1CCCC(Nc2ncnc(N)c2-c2ccc(Oc3ccccc3)cc2)C1 (stereo not drawn) [A253, 1-(3-((6-amino-5-(4-phenoxyphenyl)pyrimidin-4-yl)amino)piperidin-1-yl)prop-2-en-1-one] | – | < 1 µM
33 | C=CC(=O)Nc1cccc(Oc2ncncc2-c2ccc(Oc3ccccc3)cc2)c1 [A255, N-(3-((5-(4-phenoxyphenyl)pyrimidin-4-yl)oxy)phenyl)acrylamide] | – | < 1 µM
34 | C=CC(=O)Nc1cccc(Oc2ncnc(N)c2-c2ccc(C(=O)Nc3ccccc3)cc2)c1 [A258, 4-(4-(3-acrylamidophenoxy)-6-aminopyrimidin-5-yl)-N-phenylbenzamide] | < 0.1 µM | > 1 µM
35 | C=CC(=O)N1CCC(CNc2ncnc(N)c2-c2ccc(Oc3ccccc3)cc2)C1 (stereo not drawn) [A262, 1-(3-(((6-amino-5-(4-phenoxyphenyl)pyrimidin-4-yl)amino)methyl)pyrrolidin-1-yl)prop-2-en-1-one] | – | < 1 µM
36 | C=CC(=O)N[C@H]1CC[C@@H](Nc2ncnc(N)c2-c2ccc(Oc3ccccc3)cc2)CC1 [A266, N-((1s,4s)-4-((6-amino-5-(4-phenoxyphenyl)pyrimidin-4-yl)amino)cyclohexyl)acrylamide] | – | < 1 µM
37 | C=CC(=O)Nc1cccc(-c2cnc(N)nc2Oc2ccc(Oc3ccccc3)cc2)c1 [A306, N-(3-(2-amino-4-(4-phenoxyphenoxy)pyrimidin-5-yl)phenyl)acrylamide] | < 0.1 µM | < 1 µM
